Data published in PMC11380953, “Multivalent, calcium-independent binding of surfactant protein A and D to sulfated glycosaminoglycans of the alveolar epithelial glycocalyx” (American Journal of Physiology - Lung Cellular and …, 2024).
Where two headings read alike, the source gives them in different places.

What was measured:
[1] = target: T1, recSP-A1 (human recombinant SP-A1) (Homo sapiens, UniProt Q8IWL2); assay: Microscale thermophoresis (MST) binding to recSP-A1; conditions: for Kd: recSP-A1, GAGs from Fig. 2, read-out: Kd (±KD Confidence); for Response Amplitude: recSP-A1, MST, GAGs from Fig. 2
T1 construct: purchased Aviva Systems Biology OPCD07130; host or cells: prokaryotic expression
Protocol: (§1) Human-isolated and recombinant proteins were labeled using the Monolith Protein Labeling Kit RED-NHS according to the manufacturer’s instructions. This kit reagent reacts with lysine residues present in the sequence of the protein, as the dye carries a reactive NHS-ester group. Briefly, as all the proteins were in a Tris buffer solution, the buffer solution was exchanged to a HEPES-based buffer with the A-Column provided in the kit. Then, 10 µM solution of protein was incubated with a threefold excess of dye in 100 µL for 30 min at room temperature protected from light. The labeled protein was separated from the free dye using the B-Column provided in the kit. The concentration of the labeled protein {c(M) = [A205 − (A650 × 0.19)]/[31 × MWprotein]) and the degree of labeling [DOL = A650/(195.000 M^−1cm^−1 × c(M)] were calculated according to the manufacturer’s instruction, measuring absorption at 205 nm (for the protein) and 650 nm (for the dye).
(§2) Thermophoresis is the phenomenon of movement of particles along a temperature gradient. Solvated molecules move from higher to lower temperature. This movement or depletion of molecules from the heat is quantified by the Soret coefficient ST: Chot/Ccold = exp (−STΔT). The depletion of molecules depends on the interface between molecule and solvent. Therefore, thermophoresis monitors changes in size, charge, and solvation entropy of molecules. In this regard, the thermophoresis or movement of a protein is different from a protein-ligand complex ([35]). Microscale or miniaturized thermophoresis allows to monitor molecular interaction in only a few microliters. For this method, the fluorescently labeled protein is mixed with a decreasing concentration of a ligand in 16 glass capillaries. The initial fluorescence is measured (Fcold), then an infrared (IR) laser beam is switched on and focused on the center of the first capillary, where the temperature gradient is created from the center to the walls of the capillary. At the same time, a dichroic mirror allows fluorescence from the labeled protein to be monitored (Fhot). The rate of fluorescence change is related to the amount of protein-ligand complex form, which depends on the ligand concentration, due to changes in size, charge, or hydration shell of the protein-ligand complex. The dissociation constant KD is calculated from the binding curve derived by plotting the normalized fluorescence (FNorm) at a given time after the start of the thermophoresis against the respective ligand concentration ([33], [34], [36]).
(§3) Samples were measured in a Monolith NT.115, using Premium Capillaries (MO-K025) and Monolith Protein labeling kit RED-NHS (MO-L011) all from NanoTemper Technologies (Munich, Germany). Solutions of a 3X concentrated MST buffer (15 mM Tris, 300 mM NaCl, 0.3% Tween 20, 15 mM CaCl2, pH 7.4), sugars (270 mM) or GAG (30 µM) solution, and protein solution (27 nM) were prepared separately. When a different concentration was used, a threefold concentration of the solution was prepared. Afterward, sugars and GAG solutions were diluted 1:2 with water in a series of 16 steps. For the measurement, 3 µL of each prepared component (3 µL MST buffer, 3 µL GAG solution, and 3 µL labeled protein) was mixed, centrifuged shortly to eliminate precipitates, and loaded into a glass capillary. The final concentrations of the sugars were thus between 90 –and 0.00275 mM or GAGs 10 and 0.000305 µM for GAGs, respectively. The 16 capillaries were loaded in the Monolith NT.115 and measurements were performed with a 40% LED power and medium MST power at 25°C.
(§4) Every set of 16 capillaries was prepared in 3–6 replicates (technical replicates) and measured. The replicate measures of every capillary were plotted against concentration and outliers were excluded, using the MO Affinity Analysis 3 v01 software (NanoTemper Technologies, Munich, Germany). […]

[2] = target: T2, recSP-A2 (human recombinant SP-A2) (Homo sapiens, UniProt Q8IWL1); assay: Microscale thermophoresis (MST) binding to recSP-A2; conditions: for Kd: recSP-A2, GAGs from Fig. 2, read-out: Kd (±KD Confidence); for Response Amplitude: recSP-A2, MST, GAGs from Fig. 2
T2 construct: purchased Aviva Systems Biology OPCD07132; host or cells: prokaryotic expression
Protocol: as §1, §2, §3, §4

[3] = target: T3, rhSP-D (human recombinant SP-D) (Homo sapiens, UniProt P35247); assay: Microscale thermophoresis (MST) binding to rhSP-D; parameters: Response Amplitude: unit not given here
T3 construct: host or cells: CHO cells
T3 sequence (P35247 21-375): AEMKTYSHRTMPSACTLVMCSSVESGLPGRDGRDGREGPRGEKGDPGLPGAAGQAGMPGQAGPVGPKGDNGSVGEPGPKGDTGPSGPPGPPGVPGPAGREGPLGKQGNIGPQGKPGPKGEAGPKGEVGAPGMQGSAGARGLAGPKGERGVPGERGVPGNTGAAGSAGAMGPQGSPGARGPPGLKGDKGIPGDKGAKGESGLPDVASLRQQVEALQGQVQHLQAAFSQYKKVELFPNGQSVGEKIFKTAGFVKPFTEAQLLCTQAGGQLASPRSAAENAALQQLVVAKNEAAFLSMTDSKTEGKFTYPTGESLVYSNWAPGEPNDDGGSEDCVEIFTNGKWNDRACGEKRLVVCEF
Protocol: as §1, §2, §3, §4

[4] = GAGs from Fig. 2, read-out: Kd (±KD Confidence)

T1 sequence (Q8IWL2 21-248): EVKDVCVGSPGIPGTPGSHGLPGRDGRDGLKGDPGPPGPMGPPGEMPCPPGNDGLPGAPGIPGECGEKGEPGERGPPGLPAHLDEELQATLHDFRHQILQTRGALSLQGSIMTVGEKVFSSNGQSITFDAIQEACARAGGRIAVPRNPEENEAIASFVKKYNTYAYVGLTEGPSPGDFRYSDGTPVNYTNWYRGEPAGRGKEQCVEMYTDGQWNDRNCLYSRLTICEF
T2 sequence (Q8IWL1 21-248): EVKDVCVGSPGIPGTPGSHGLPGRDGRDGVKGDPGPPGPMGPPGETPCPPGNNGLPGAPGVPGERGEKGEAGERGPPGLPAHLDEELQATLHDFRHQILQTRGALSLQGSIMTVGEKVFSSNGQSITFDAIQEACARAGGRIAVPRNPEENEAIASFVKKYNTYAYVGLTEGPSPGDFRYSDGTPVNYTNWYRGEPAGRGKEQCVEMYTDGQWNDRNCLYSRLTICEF

Substance | Kd [1] [nM] | Response Amplitude [1] | Kd [2] [nM] | Response Amplitude [2] | Response Amplitude ([3]; 0 mM Ca^2+) | Kd ([3]; 0 mM Ca^2+, read-out: KD) [nM] | Response Amplitude ([3]; 2.5 mM Ca^2+) | Kd ([3]; 2.5 mM Ca^2+, read-out: KD) [nM] | Response Amplitude ([3]; 5 mM Ca^2+) | Kd ([3]; 5 mM Ca^2+, read-out: KD) [nM] | Response Amplitude ([3]; 10 mM Ca^2+) | Kd ([3]; 10 mM Ca^2+, read-out: KD) [nM] | Kd [3, 4] [nM] | Response Amplitude ([3]; MST, GAGs from Fig. 2)
heparan sulfate sodium [HS] | 269 | 15.51 | 143 | 15.59 | 12.04 | 735 | 33.47 | 7.44 | 6.29 | 431 | 15.22 | 0.688 | 287 | 3.55
hyaluronic acid sodium salt [HA] | 1010 | 17.13 | 1870 | 19.28 | – | – | – | – | 5.33 | 41.9 | 3.25 | 31.1 | 22.1 | 9.67
chondroitin sulfate sodium salt [CS] | 80.1 | 17.02 | 55.2 | 31.90 | 16.10 | 17600 | 10.05 | 152 | 10.83 | 97.1 | 21.36 | 131 | 0.808 | 23.54
